Results as given in ChEMBL document CHEMBL3797052 (Eur J Med Chem, 2016).

System: T47D
Experiment: Antiproliferative activity against human T47D cells assessed as growth inhibition after 48 hrs by sulforhodamine B assay
Type: functional
Details: not given

| SMILES | GI50 [µM] | TGI [µM] |
| --- | --- | --- |
| CNC(=O)c1cc(Oc2ccc3nc(NC(=O)c4cc(C(F)(F)F)cc(C(F)(F)F)c4)sc3c2)ccn1 | 3.04 | 9.18 |

Same assay, conditions: read-out: LC50 (the source's name)

| SMILES | CC50 [µM] |
| --- | --- |
| CNC(=O)c1cc(Oc2ccc3nc(NC(=O)c4cc(C(F)(F)F)cc(C(F)(F)F)c4)sc3c2)ccn1 | > 100 |

System: NCI-H522
Experiment: Antiproliferative activity against human NCI-H522 cells assessed as cell growth at 10^-6 M after 48 hrs by sulforhodamine B assay
Type: functional
Details: NCI-H522, 48 h, read-out: Activity

| SMILES | growth at 1 µM [%] |
| --- | --- |
| CNC(=O)c1cc(Oc2ccc3nc(NC(=O)c4cc(C(F)(F)F)cc(C(F)(F)F)c4)sc3c2)ccn1 | 96 |

System: T47D
Experiment: Antiproliferative activity against human T47D cells assessed as cell growth at 10^-8 M after 48 hrs by sulforhodamine B assay
Type: functional
Details: read-out: Activity

| SMILES | growth at 0.01 µM [%] |
| --- | --- |
| CNC(=O)c1cc(Oc2ccc3nc(NC(=O)c4cc(C(F)(F)F)cc(C(F)(F)F)c4)sc3c2)ccn1 | 97 |

System: K562
Experiment: Antiproliferative activity against human K562 cells assessed as cell growth at 10^-7 M after 48 hrs by sulforhodamine B assay
Type: functional
Details: K562, 48 h, read-out: Activity

| SMILES | growth at 0.1 µM [%] |
| --- | --- |
| CNC(=O)c1cc(Oc2ccc3nc(NC(=O)c4cc(C(F)(F)F)cc(C(F)(F)F)c4)sc3c2)ccn1 | 98 |

System: SK-MEL-28
Experiment: Antiproliferative activity against human SK-MEL-28 cells assessed as cell growth at 10^-4 M after 48 hrs by sulforhodamine B assay
Type: functional
Details: SK-MEL-28, 48 h, read-out: Activity

| SMILES | growth at 100 µM [%] |
| --- | --- |
| CNC(=O)c1cc(Oc2ccc3nc(NC(=O)c4cc(C(F)(F)F)cc(C(F)(F)F)c4)sc3c2)ccn1 | -13 |

System: not listed separately
Experiment: Antiproliferative activity against human HCC2998 cells assessed as growth inhibition after 48 hrs by sulforhodamine B assay
Type: functional
Details: HCC 2998, 48 h

| SMILES | GI50 [µM] | TGI [µM] |
| --- | --- | --- |
| CNC(=O)c1cc(Oc2ccc3nc(NC(=O)c4cc(C(F)(F)F)cc(C(F)(F)F)c4)sc3c2)ccn1 | 6.63 | 24.7 |

Same assay, conditions: HCC 2998, 48 h, read-out: LC50 (the source's name)

| SMILES | CC50 [µM] |
| --- | --- |
| CNC(=O)c1cc(Oc2ccc3nc(NC(=O)c4cc(C(F)(F)F)cc(C(F)(F)F)c4)sc3c2)ccn1 | 79.4 |

System: HT-29
Experiment: Antiproliferative activity against human HT-29 cells assessed as cell growth at 10^-8 M after 48 hrs by sulforhodamine B assay
Type: functional
Details: HT-29, 48 h, read-out: Activity

| SMILES | growth at 0.01 µM [%] |
| --- | --- |
| CNC(=O)c1cc(Oc2ccc3nc(NC(=O)c4cc(C(F)(F)F)cc(C(F)(F)F)c4)sc3c2)ccn1 | 108 |

System: not listed separately
Experiment: Antiproliferative activity against human OVCAR5 cells assessed as cell growth at 10^-7 M after 48 hrs by sulforhodamine B assay
Type: functional
Details: OVCAR-5, 48 h, read-out: Activity

| SMILES | growth at 0.1 µM [%] |
| --- | --- |
| CNC(=O)c1cc(Oc2ccc3nc(NC(=O)c4cc(C(F)(F)F)cc(C(F)(F)F)c4)sc3c2)ccn1 | 80 |

System: not listed separately
Experiment: Antiproliferative activity against human NCI-ADR-RES cells assessed as cell growth at 10^-8 M after 48 hrs by sulforhodamine B assay
Type: functional
Details: read-out: Activity

| SMILES | growth at 0.01 µM [%] |
| --- | --- |
| CNC(=O)c1cc(Oc2ccc3nc(NC(=O)c4cc(C(F)(F)F)cc(C(F)(F)F)c4)sc3c2)ccn1 | 102 |

System: NCI-H322M
Experiment: Antiproliferative activity against human NCI-H322M cells assessed as cell growth at 10^-7 M after 48 hrs by sulforhodamine B assay
Type: functional
Details: read-out: Activity

| SMILES | growth at 0.1 µM [%] |
| --- | --- |
| CNC(=O)c1cc(Oc2ccc3nc(NC(=O)c4cc(C(F)(F)F)cc(C(F)(F)F)c4)sc3c2)ccn1 | 93 |

System: KM12
Experiment: Antiproliferative activity against human KM12 cells assessed as cell growth at 10^-6 M after 48 hrs by sulforhodamine B assay
Type: functional
Details: KM12, 48 h, read-out: Activity

| SMILES | growth at 1 µM [%] |
| --- | --- |
| CNC(=O)c1cc(Oc2ccc3nc(NC(=O)c4cc(C(F)(F)F)cc(C(F)(F)F)c4)sc3c2)ccn1 | 86 |

System: CCRF-CEM
Experiment: Antiproliferative activity against human CCRF-CEM cells assessed as growth inhibition after 48 hrs by sulforhodamine B assay
Type: functional
Details: not given

| SMILES | GI50 [µM] | TGI [µM] |
| --- | --- | --- |
| CNC(=O)c1cc(Oc2ccc3nc(NC(=O)c4cc(C(F)(F)F)cc(C(F)(F)F)c4)sc3c2)ccn1 | 3.47 | > 100 |

Same assay, conditions: read-out: LC50 (the source's name)

| SMILES | CC50 [µM] |
| --- | --- |
| CNC(=O)c1cc(Oc2ccc3nc(NC(=O)c4cc(C(F)(F)F)cc(C(F)(F)F)c4)sc3c2)ccn1 | > 100 |

System: ACHN
Experiment: Antiproliferative activity against human ACHN cells assessed as cell growth at 10^-8 M after 48 hrs by sulforhodamine B assay
Type: functional
Details: read-out: Activity

| SMILES | growth at 0.01 µM [%] |
| --- | --- |
| CNC(=O)c1cc(Oc2ccc3nc(NC(=O)c4cc(C(F)(F)F)cc(C(F)(F)F)c4)sc3c2)ccn1 | 104 |

System: not listed separately
Experiment: Antiproliferative activity against human NCI-ADR-RES cells assessed as cell growth at 10^-4 M after 48 hrs by sulforhodamine B assay
Type: functional
Details: read-out: Activity

| SMILES | growth at 100 µM [%] |
| --- | --- |
| CNC(=O)c1cc(Oc2ccc3nc(NC(=O)c4cc(C(F)(F)F)cc(C(F)(F)F)c4)sc3c2)ccn1 | -38 |

System: not listed separately
Experiment: Antiproliferative activity against human RPMI8226 cells assessed as cell growth at 10^-6 M after 48 hrs by sulforhodamine B assay
Type: functional
Details: RPMI-8226, 48 h, read-out: Activity

| SMILES | growth at 1 µM [%] |
| --- | --- |
| CNC(=O)c1cc(Oc2ccc3nc(NC(=O)c4cc(C(F)(F)F)cc(C(F)(F)F)c4)sc3c2)ccn1 | 75 |

System: K562
Experiment: Antiproliferative activity against human K562 cells assessed as growth inhibition after 48 hrs by sulforhodamine B assay
Type: functional
Details: K562, 48 h

| SMILES | GI50 [µM] | TGI [µM] |
| --- | --- | --- |
| CNC(=O)c1cc(Oc2ccc3nc(NC(=O)c4cc(C(F)(F)F)cc(C(F)(F)F)c4)sc3c2)ccn1 | 3.53 | > 100 |

Same assay, conditions: K562, 48 h, read-out: LC50 (the source's name)

| SMILES | CC50 [µM] |
| --- | --- |
| CNC(=O)c1cc(Oc2ccc3nc(NC(=O)c4cc(C(F)(F)F)cc(C(F)(F)F)c4)sc3c2)ccn1 | > 100 |

System: not listed separately
Experiment: Antiproliferative activity against human LOXIMVI cells assessed as cell growth at 10^-8 M after 48 hrs by sulforhodamine B assay
Type: functional
Details: LOX IMVI, read-out: Activity

| SMILES | growth at 0.01 µM [%] |
| --- | --- |
| CNC(=O)c1cc(Oc2ccc3nc(NC(=O)c4cc(C(F)(F)F)cc(C(F)(F)F)c4)sc3c2)ccn1 | 97 |
